Measured values taken from patent US8450317B2, “CXCR3 receptor antagonists” (Boehringer Ingelheim International GmbH, priority 2009, dated 2013).

biological target: CXCR3 (Macaca fascicularis, UniProt A0A2K5UV19); assay: functional cellular assay measuring calcium flux in CXCR3 transfected cells (block of CXCR3/IP-10 interaction); format: cell-based, Cyno; conditions: IP-10 induced intracellular calcium flux; Cyno-CHO cells stably expressing recombinant CXCR3 and G-alpha-16; IP-10 at EC80; read-out: IC50
Sequence (A0A2K5UV19 entry or part of it): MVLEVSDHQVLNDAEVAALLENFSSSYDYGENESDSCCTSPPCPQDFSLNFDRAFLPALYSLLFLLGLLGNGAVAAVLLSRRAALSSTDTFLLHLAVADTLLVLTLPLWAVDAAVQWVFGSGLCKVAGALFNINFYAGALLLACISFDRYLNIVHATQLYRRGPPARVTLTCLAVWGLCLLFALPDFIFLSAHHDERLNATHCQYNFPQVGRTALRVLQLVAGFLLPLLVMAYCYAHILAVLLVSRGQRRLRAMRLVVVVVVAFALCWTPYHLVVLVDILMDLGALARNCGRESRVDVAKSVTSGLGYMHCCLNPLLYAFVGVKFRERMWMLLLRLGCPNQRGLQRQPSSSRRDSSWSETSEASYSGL
Description: Compounds are assessed for the ability to block the interaction of CXCR3 and IP-10 in a functional cellular assay measuring calcium flux in CXCR3 transfected cells.
Cyno-CHO cells, stably expressing recombinant CXCR3 and G-alpha-16 are grown in F12 medium (Mediatech #45000-360) supplemented with 10% (V/V) FBS (Mediatech #35-01500), 1% Geneticin (Invitrogen #10131-027) and 0.2% Zeocin (Invitrogen #R250-05). The cells are spun down and re-suspended in growth media to a concentration of […]. 25 microL of cell suspension is added to each well of a BD-384-well TC treated plate, providing 12,000 cells/well. The plate is incubated at 37° C./5% CO2 overnight. On the day of the assay, the plates are removed, the media is flicked out and 25 microL of Ca-4 dye in assay buffer (HBSS, 10 mM HEPES ph 7.4), containing 2 mM probenacid is added to each well. The cell assay plates are then incubated at 37° C./5% CO2 for one hour.
Test compounds are dissolved in DMSO and diluted to 1.045 mM in DMSO. Just prior to assay, 2.75 microL of appropriately diluted test compound are added to each well of a 384 well plate containing 45 microL of HBSS buffer. After mixing, 5 microL of diluted compound are added to each well of the cell assay plate for a final assay concentration of 10 microM. The plate is incubated at room temperature for 15 min. 10 microL of IP-10 stock solution in HBSS (4× EC80 concentration) are added to each well of the cell assay plate except those cells reserved as blank wells containing buffer only. Intracellular calcium flux is recorded on the HAMAMTSU FDSS6000, using excitation at 480 nm and emission at 540 nm. Data are analyzed using Activity Base software.
In general, the preferred potency range (IC50) of compounds in the above assay is between 1 nM to 3 μM, and the most preferred potency range is 1 nM to 200 nM.

SMILES | IC50 [nM]
Cc1cc(C)n(CC(=O)N2CCN(c3ccccc3-c3cnc(N4CCC(N(C)C)CC4)nc3)CC2)n1 [1-(4-{2-[2-(4-Dimethylamino-piperidin-1-yl)-pyrimidin-5-yl]-phenyl}-piperazin-1-yl)-2-(3,5-dimethyl-pyrazol-1-yl)-ethanone] | 31
COc1cc(NC(=O)c2cc(F)ccc2N2CCN(C(=O)Cn3nc(C)cc3C)[C@H](C)C2)ccn1 [2-{(3R)-4-[(3,5-dimethyl-1H-pyrazol-1-yl)acetyl]-3-methylpiperazin-1-yl}-5-fluoro-N-(2-methoxypyridin-4-yl)benzamide] | 8
C[C@H]1CN(c2ccc(F)cc2C(=O)Nc2nc3c(s2)CN(C)CC3)CCN1C(=O)Cn1cnc2cccnc21 [5-fluoro-2-[(3S)-4-(3H-imidazo[4,5-b]pyridin-3-ylacetyl)-3-methylpiperazin-1-yl]-N-(5-methyl-4,5,6,7-tetrahydro[1,3]thiazolo[5,4-c]pyridin-2-yl)benzamide] | 15
CNc1ncc(-c2ccccc2N2CCN(C(=O)Cn3ccc4cccnc43)CC2)cn1 [1-{4-[2-(2-Methylamino-pyrimidin-5-yl)-phenyl]-piperazin-1-yl}-2-pyrrolo[2,3-b]pyridin-1-yl-ethanone] | 7
Cc1cc(C)n(CC(=O)N2CCN(c3ccccc3-c3cnc(N4CCCC(C(F)(F)F)C4)nc3)CC2)n1 (stereo not shown) [2-(3,5-Dimethyl-pyrazol-1-yl)-1-(4-{2-[2-(3-trifluoromethyl-piperidin-1-yl)-pyrimidin-5-yl]-phenyl}-piperazin-1-yl)-ethanone] | 12
COc1ncc(-c2ccccc2N2CCN(C(=O)Cn3ccc4ccncc43)CC2)cn1 [1-{4-[2-(2-Methoxy-pyrimidin-5-yl)-phenyl]-piperazin-1-yl}-2-pyrrolo[2,3-c]pyridin-1-yl-ethanone] | 9
CNc1ncc(-c2cc(Cl)ccc2N2CCN(C(=O)Cn3nc(C)cc3C)CC2)cn1 [1-{4-[4-Chloro-2-(2-methylamino-pyrimidin-5-yl)-phenyl]-piperazin-1-yl}-2-(3,5-dimethyl-pyrazol-1-yl)-ethanone] | 13
CCNc1ncc(-c2ccccc2N2CCN(C(=O)Cn3nc(C)cc3C)CC2)cn1 [2-(3,5-Dimethyl-pyrazol-1-yl)-1-{4-[2-(2-ethylamino-pyrimidin-5-yl)-phenyl]-piperazin-1-yl}-ethanone] | 10
COC1(C)CCN(c2ncc(-c3ccccc3N3CCN(C(=O)Cn4nc(C)cc4C)CC3)cn2)CC1 [2-(3,5-Dimethyl-pyrazol-1-yl)-1-(4-{2-[2-(4-methoxy-4-methyl-piperidin-1-yl)-pyrimidin-5-yl]-phenyl}-piperazin-1-yl)-ethanone] | 33
CC1CN(c2ccc(F)cc2-c2cnc(N3CCC(S(C)(=O)=O)CC3)nc2)CCN1C(=O)CN1Cc2ccccc2C1=O (stereo not shown) [2-{2-[4-(4-fluoro-2-{2-[4-(methylsulfonyl)piperidin-1-yl]pyrimidin-5-yl}phenyl)-2-methylpiperazin-1-yl]-2-oxoethyl}-2,3-dihydro-1H-isoindol-1-one] | 10
COc1cc(NC(=O)c2cc(F)ccc2N2CCN(C(=O)Cn3cnc4cccnc43)[C@H](C)C2)ccn1 [5-fluoro-2-[(3R)-4-(3H-imidazo[4,5-b]pyridin-3-ylacetyl)-3-methylpiperazin-1-yl]-N-(2-methoxypyridin-4-yl)benzamide] | 7
CC1CN(c2ccc(C(F)(F)F)cc2-c2cnc(N3CCC(O)CC3)nc2)CCN1C(=O)Cn1ccc2cccnc21 (stereo not shown) [1-(4-{2-[2-(4-hydroxypiperidin-1-yl)pyrimidin-5-yl]-4-(trifluoromethyl)phenyl}-2-methylpiperazin-1-yl)-2-(1H-pyrrolo[2,3-b]pyridin-1-yl)ethanone] | 10
CC1CN(c2ccccc2-c2cnc(N3CCC(O)CC3)nc2)CCN1C(=O)CN1Cc2ccccc2C1=O (stereo not shown) [2-[2-(4-{2-[2-(4-hydroxypiperidin-1-yl)pyrimidin-5-yl]phenyl}-2-methylpiperazin-1-yl)-2-oxoethyl]-2,3-dihydro-1H-isoindol-1-one] | 10
O=C(Cn1ccc2cccnc21)N1CCN(c2ccccc2-c2cnc(N3CCCOCC3)nc2)CC1 [1-{4-[2-(2-[1,4]Oxazepan-4-yl-pyrimidin-5-yl)-phenyl]-piperazin-1-yl}-2-pyrrolo[2,3-b]pyridin-1-yl-ethanone] | 9
Cc1cc(C)n(CC(=O)N2CCN(c3ccccc3-c3cnc(N4C[C@@H]5C[C@H]4CO5)nc3)CC2)n1 [2-(3,5-Dimethyl-pyrazol-1-yl)-1-(4-{2-[(1S,4S)-2-(2-oxa-5-aza-bicyclo[2.2.1]hept-5-yl)-pyrimidin-5-yl]-phenyl}-piperazin-1-yl)-ethanone] | 14
O=C(CN1Cc2ccccc2C1=O)N1CCN(c2ccc(F)cc2-c2cnc(N3CCCC3)nc2)CC1 [2-[2-(4-{4-fluoro-2-[2-(pyrrolidin-1-yl)pyrimidin-5-yl]phenyl}piperazin-1-yl)-2-oxoethyl]-2,3-dihydro-1H-isoindol-1-one] | 15
CS(=O)(=O)C1CCN(c2ncc(-c3cc(F)ccc3N3CCN(C(=O)Cn4ccc5cccnc54)CC3)cn2)CC1 [1-[4-(4-fluoro-2-{2-[4-(methylsulfonyl)piperidin-1-yl]pyrimidin-5-yl}phenyl)piperazin-1-yl]-2-(1H-pyrrolo[2,3-b]pyridin-1-yl)ethanone] | 9
O=C(Cn1ccc2cccnc21)N1CCN(c2ccccc2N2Cc3ccccc3C2=O)CC1 [2-{2-[4-(2-Pyrrolo[2,3-b]pyridin-1-yl-acetyl)-piperazin-1-yl]-phenyl}-2,3-dihydro-isoindol-1-one] | 48
CS(=O)(=O)C1CCN(c2ncc(-c3cc(F)ccc3N3CCN(C(=O)Cn4cnc5cccnc54)CC3)cn2)CC1 [1-[4-(4-fluoro-2-{2-[4-(methylsulfonyl)piperidin-1-yl]pyrimidin-5-yl}phenyl)piperazin-1-yl]-2-(3H-imidazo[4,5-b]pyridin-3-yl)ethanone] | 10

Continued by falling IC50, values first:

IC50 [nM] | SMILES
58 | COc1ccc(-c2ccccc2N2CCN(C(=O)Cn3nc(C)cc3C)CC2)cn1 [2-(3,5-Dimethyl-pyrazol-1-yl)-1-{4-[2-(6-methoxy-pyridin-3-yl)-phenyl]-piperazin-1-yl}-ethanone]
35 | Cc1ocnc1C(=O)N(C)CC(=O)N1CCN(c2ccc(F)cc2C(=O)Nc2nc3c(s2)CN(C)CC3)C[C@H]1C [N-{2-[(2R)-4-{4-fluoro-2-[(5-methyl-4,5,6,7-tetrahydro[1,3]thiazolo[5,4-c]pyridin-2-yl)carbamoyl]phenyl}-2-methylpiperazin-1-yl]-2-oxoethyl}-N,5-dimethyl-1,3-oxazole-4-carboxamide]
15 | C[C@@H]1CN(c2ccc(F)cc2C(=O)Nc2nc3c(s2)CN(C)CC3)CCN1C(=O)CN1Cc2ccccc2C1=O [5-fluoro-2-{(3R)-3-methyl-4-[(1-oxo-1,3-dihydro-2H-isoindol-2-yl)acetyl]piperazin-1-yl}-N-(5-methyl-4,5,6,7-tetrahydro[1,3]thiazolo[5,4-c]pyridin-2-yl)benzamide]
13 | N#Cc1ncc(-c2ccccc2N2CCN(C(=O)Cn3ccc4cccnc43)CC2)cn1 [5-{2-[4-(2-Pyrrolo[2,3-b]pyridin-1-yl-acetyl)-piperazin-1-yl]-phenyl}-pyrimidine-2-carbonitrile]
13 | O=C(Cn1ccc2cccnc21)N1CCN(c2ccc(Cl)cc2-c2cnc(N3CCOCC3)nc2)CC1 [1-{4-[4-Chloro-2-(2-morpholin-4-yl-pyrimidin-5-yl)-phenyl]-piperazin-1-yl}-2-pyrrolo[2,3-b]pyridin-1-yl-ethanone]
11 | CC1CN(C(=O)Cn2ccc3cccnc32)CCN1c1ccccc1-c1cnc(N2CCOCC2)nc1 (stereo not shown) [1-{3-Methyl-4-[2-(2-morpholin-4-yl-pyrimidin-5-yl)-phenyl]-piperazin-1-yl}-2-pyrrolo[2,3-b]pyridin-1-yl-ethanone]
8 | CC1CN(c2ccccc2-c2cnc(N3CCC(O)CC3)nc2)CCN1C(=O)Cn1ccc2ccncc21 (stereo not shown) [1-(4-{2-[2-(4-hydroxypiperidin-1-yl)pyrimidin-5-yl]phenyl}-2-methylpiperazin-1-yl)-2-(1H-pyrrolo[2,3-c]pyridin-1-yl)ethanone]
8 | CC1CN(c2ccc(C(F)(F)F)cc2-c2cnc(N3CCC(S(C)(=O)=O)CC3)nc2)CCN1C(=O)Cn1c(=O)[nH]c2ccccc21 (stereo not shown) [1-(2-{2-methyl-4-[2-{2-[4-(methylsulfonyl)piperidin-1-yl]pyrimidin-5-yl}-4-(trifluoromethyl)phenyl]piperazin-1-yl}-2-oxoethyl)-1,3-dihydro-2H-benzimidazol-2-one]
5 | Cc1cc(C)n(CC(=O)N2CCN(c3ccc(F)cc3-c3cnc(N4CCOCC4)nc3)CC2)n1 [2-(3,5-Dimethyl-pyrazol-1-yl)-1-{4-[4-fluoro-2-(2-morpholin-4-yl-pyrimidin-5-yl)-phenyl]-piperazin-1-yl}-ethanone]
